Patent US10597388B2, “Pyridazinone herbicides” (FMC CORPORATION, priority 2014, dated 2020)

Legend:
Format in all cases: in vivo
[1] = system: barnyardgrass (Echinochloa crus-galli); assay: Test C greenhouse herbicide test, pre- and postemergence
Summary of the method: (§1)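 Two application timings: at sowing into a soil/sand blend, and on 2–18 cm seedlings in peat-vermiculite potting mix. A non-phytotoxic, surfactant-containing solvent carried the compounds. Plants were compared with controls and rated visually on 0–100 after 13–15 d.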

[2] = system: blackgrass (Alopecurus myosuroides); assay: as above
Summary of the method: as §1

corn (Zea mays) = assay: as above
Summary of the method: as §1

[3] = system: crabgrass, large (large crabgrass, Digitaria sanguinalis); assay: as above
Summary of the method: as §1

[4] = system: foxtail, giant (giant foxtail, Setaria faberii); assay: as above
Summary of the method: as §1

[5] = system: johnsongrass (Sorghum halepense); assay: as above
Summary of the method: as §1

[6] = system: lambsquarters (Chenopodium album); assay: as above
Summary of the method: as §1

[7] = system: morningglory (Ipomoea coccinea); assay: as above
Summary of the method: as §1

[8] = system: nutsedge, yellow (yellow nutsedge, Cyperus esculentus); assay: as above
Summary of the method: as §1

[9] = system: oilseed rape (Brassica napus); assay: as above
Summary of the method: as §1

[10] = system: pigweed (Amaranthus retroflexus); assay: as above
Summary of the method: as §1

[11] = system: velvetleaf (Abutilon theophrasti); assay: as above
Summary of the method: as §1

[12] = system: waterhemp (common waterhemp, Amaranthus rudis); assay: as above
Summary of the method: as §1

[13] = system: wheat (winter wheat, Triticum aestivum); assay: as above
Summary of the method: as §1

kochia (Kochia scoparia) = assay: Test C greenhouse herbicide test, postemergence
Summary of the method: (§2)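 Steps: pot plants in peat-based medium; spray postemergence at 1- to 4-leaf stage; hold in greenhouse 13 to 15 d; score visually against controls from 0 (no effect) to 100 (complete control).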

[14] = system: oat, wild (wild oat, Avena fatua); assay: Test C greenhouse herbicide test, postemergence
Summary of the method: as §2

[15] = Postemergence, 31 g ai/ha, scale 0 to 100 (0 no effect, 100 complete control)
[16] = Postemergence, 62 g ai/ha, 0 to 100 scale (0 no effect, 100 complete control)
[17] = Postemergence, 250 g ai/ha, scale 0 to 100, 0 is no effect, 100 is complete control
[18] = postemergence, 125 g ai/ha, scale 0 to 100, 0 no effect, 100 complete control

Cc1ccc2ccccc2c1-c1c(OC(=O)N2CCOCC2)c(Br)nn(C)c1=O [Compound 176]
Plant response rating, Barnyardgrass [1, 15]: 5
Barnyardgrass plant response rating [1, 16]: 5
Plant response rating, Barnyardgrass [1, 17]: 20
Barnyardgrass plant response rating [1, 18]: 10
Plant response rating, Blackgrass [2, 15]: 0
Blackgrass plant response rating [2, 16]: 0
Plant response rating, Blackgrass [2, 17]: 0
Blackgrass plant response rating [2, 18]: 0
Plant response rating, Corn (corn (Zea mays); [15]): 0
Corn plant response rating (corn (Zea mays); [16]): 10
Plant response rating, Corn (corn (Zea mays); [17]): 5
Corn plant response rating (corn (Zea mays); [18]): 0
Plant response rating, Crabgrass, Large [3, 15]: 10
Crabgrass, Large plant response rating [3, 16]: 5
Plant response rating, Crabgrass, Large [3, 17]: 30
Crabgrass, Large plant response rating [3, 18]: 20
Plant response rating, Foxtail, Giant [4, 15]: 5
Foxtail, Giant plant response rating [4, 16]: 15
Plant response rating, Foxtail, Giant [4, 17]: 40
Foxtail, Giant plant response rating [4, 18]: 35
Plant response rating, Johnsongrass [5, 15]: 5
Johnsongrass plant response rating [5, 16]: 5
Plant response rating, Johnsongrass [5, 17]: 10
Johnsongrass plant response rating [5, 18]: 5
Plant response rating, Lambsquarters [6, 15]: 60
Lambsquarters plant response rating [6, 16]: 80
Plant response rating, Lambsquarters [6, 17]: 90
Lambsquarters plant response rating [6, 18]: 80
Plant response rating, Morningglory [7, 15]: 85
Morningglory plant response rating [7, 16]: 85
Plant response rating, Morningglory [7, 17]: 100
Morningglory plant response rating [7, 18]: 98
Plant response rating, Nutsedge, Yellow [8, 15]: 5
Nutsedge, Yellow plant response rating [8, 16]: 5
Plant response rating, Nutsedge, Yellow [8, 17]: 5
Nutsedge, Yellow plant response rating [8, 18]: 5
Plant response rating, Oilseed Rape [9, 15]: 95
Oilseed Rape plant response rating [9, 16]: 95
Plant response rating, Oilseed Rape [9, 17]: 95
Oilseed Rape plant response rating [9, 18]: 95
Plant response rating, Pigweed [10, 15]: 20
Pigweed plant response rating [10, 16]: 30
Plant response rating, Pigweed [10, 17]: 75
Pigweed plant response rating [10, 18]: 50
Plant response rating, Velvetleaf [11, 15]: 0
Velvetleaf plant response rating [11, 16]: 25
Plant response rating, Velvetleaf [11, 17]: 80
Velvetleaf plant response rating [11, 18]: 75
Plant response rating, Waterhemp [12, 15]: 20
Waterhemp plant response rating [12, 16]: 40
Plant response rating, Waterhemp [12, 17]: 55
Waterhemp plant response rating [12, 18]: 60
Plant response rating, Wheat [13, 15]: 0
Wheat plant response rating [13, 16]: 5
Plant response rating, Wheat [13, 17]: 40
Wheat plant response rating [13, 18]: 10
Plant response rating, Kochia (kochia (Kochia scoparia); [15]): 90
Kochia plant response rating (kochia (Kochia scoparia); [16]): 90
Plant response rating, Kochia (kochia (Kochia scoparia); [17]): 100
Kochia plant response rating (kochia (Kochia scoparia); [18]): 95
Plant response rating, Oat, Wild [14, 15]: 0
Oat, Wild plant response rating [14, 16]: 5
Plant response rating, Oat, Wild [14, 17]: 35
Oat, Wild plant response rating [14, 18]: 10
